Results published in US11447460B2, “Compounds and compositions for treating conditions associated with NLRP activity” (Novartis AG, priority 2016, dated 2022).

Test system: IL-1β production in PMA-differentiated THP-1 cells
Experiment: IL-1β production in PMA-differentiated THP-1 cells stimulated with gramicidin (hTHP-1 assay, 2% bovine serum; Bioassays 1 and 2)
Format: cell-based, human
Settings: Homo sapiens, THP-1; hTHP-1 assay containing 2% bovine serum; Table 12, by Example #; read-out: Average IC50 of compounds in hTHP-1 assay
Method: IL-1β Production in PMA-Differentiated THP-1 Cells Stimulated with Gramicidin.
Cell culture-THP-1 cells were purchased from the American Type Culture Collection and sub-cultured according to instructions from the supplier. Prior to experiments, cells were cultured in RPMI 1640 containing 10% heat inactivated FBS, penicillin (100 units/ml) and streptomycin (100 μg/ml), and maintained in log phase prior to experimental setup. Prior to the experiment THP-1 were treated with PMA (Phorbol 12-myristate 13-acetate) (10 μg/ml) for 24 hours. The day of the experiment the media was removed and attaching cells were treated with trypsin for 2 minutes, cells were then collected, washed with PBS (phosphate buffer saline), spin down, resuspended in 2% heat inactivated FBS with RPMI at a concentration of 1×10^6 cells/ml, and 100 ul was plated in a 96 well plate. Cells were incubated with compounds for 1 hours and then stimulated with Gramicidin (5 μM) (Enzo) for 2 hours. Cell free supernatant was collected and the production of IL-1β was evaluated by ELISA. Compounds were dissolved in dimethyl sulfoxide (DMSO) and added to the culture medium to achieve desired concentration (e.g. 100, 30, 10, 3, 1, 0.3 or 0.1 μM). A vehicle only control was run concurrently with each experiment. Final DMSO concentration was 1%.
THP-1 cells were purchased from the American Type Culture Collection and sub-cultured according to instructions from the supplier. Prior to experiments, cells were cultured in complete RPMI 1640 (containing 10% heat inactivated FBS, penicillin (100 units/ml) and streptomycin (100 μg/ml)), and maintained in log phase prior to experimental setup. Prior to the experiment THP-1 were treated with PMA (Phorbol 12-myristate 13-acetate) (20 ng/ml) for 16-18 hours. On the day of the experiment the media was removed and adherent cells were detached with trypsin for 5 minutes. Cells were then harvested, washed with complete RPMI 1640, spun down, resuspended in RPMI 1640 (containing 2% heat inactivated FBS, penicillin (100 units/ml) and streptomycin (100 μg/ml). The cells were plated in a 384-well plate at a density of 50,000 cells/well (final assay volume 50 μl). Compounds were dissolved in dimethyl sulfoxide (DMSO) and added to the culture medium to achieve desired concentration (e.g. 100, 33, 11, 3.7, 1.2, 0.41, 0.14, 0.046, 0.015, 0.0051, 0.0017 μM). Cells were incubated with compounds for 1 hour and then stimulated with gramicidin (5 μM) (Enzo) for 2 hours. Cell free supernatant was collected and the production of IL-10 was evaluated by HTRF (cisbio). A vehicle only control was run concurrently with each experiment. Final DMSO concentration was 0.38%.
Compounds tested with protocols 1 and 2 provided IC50 values that are within the variability of the assay.
Tables 12 and 13 show the biological activity of compounds in hTHP-1 assay containing 2% bovine serum: <1 μM=“++++”; ≥1 and <5 μM=“+++”; ≥5 and <15 μM=“++”; ≥15 and <60 μM=“+”.

Row | IC50 [µM] | SMILES
1 | 1 to 5 | CC(C)c1cc(C#N)cc(C(C)C)c1CC(=O)NS(=O)(=O)c1cc(Cl)cc(C(C)(C)O)c1 [Example 28, N-(3-chloro-5-(2-hydroxypropan-2-yl)phenylsulfonyl)-2-(4-cyano-2,6-diisopropylphenyl)acetamide]
2 | 15 to 60 | CC(C)c1cc(F)cc(C(C)C)c1CC(=O)NS(=O)(=O)c1cc(-c2ccncc2)cc(C(C)(C)O)c1 [Example 29, 2-(4-fluoro-2,6-diisopropylphenyl)-N-(3-(2-hydroxypropan-2-yl)-5-(pyridin-4-yl)phenylsulfonyl)acetamide]
3 | 5 to 15 | CC(C)c1cc(F)cc(C(C)C)c1CC(=O)NS(=O)(=O)c1cc(C(C)(C)O)cc(C(C)(C)O)c1 [Example 30, N-(3,5-bis(2-hydroxypropan-2-yl)phenylsulfonyl)-2-(4-fluoro-2,6-diisopropylphenyl)acetamide]
4 | 5 to 15 | CC(C)c1cc(C#N)cc(C(C)C)c1CC(=O)NS(=O)(=O)c1cc(C(C)(C)O)cc(C(C)(C)O)c1 [Example 31, N-(3,5-bis(2-hydroxypropan-2-yl)phenylsulfonyl)-2-(4-cyano-2,6-diisopropylphenyl)acetamide]
5 | 5 to 15 | CC(C)c1cc(F)cc(C(C)C)c1CC(=O)NS(=O)(=O)c1cc(-c2ccccc2)cc(C(C)(C)O)c1 [Example 32, 2-(4-fluoro-2,6-diisopropylphenyl)-N-(5-(2-hydroxypropan-2-yl)biphenyl-3-ylsulfonyl)acetamide]
6 | 5 to 15 | CC(C)c1cc(C#N)cc(C(C)C)c1CC(=O)NS(=O)(=O)c1cc(-c2ccccc2)cc(C(C)(C)O)c1 [Example 33, 2-(4-cyano-2,6-diisopropylphenyl)-N-(5-(2-hydroxypropan-2-yl)biphenyl-3-ylsulfonyl)acetamide]
7 | 1 to 5 | CC(C)c1cc(F)cc(C(C)C)c1CC(=O)NS(=O)(=O)c1ccc(C(C)(C)O)cc1 [Example 34, 2-(4-fluoro-2,6-diisopropylphenyl)-N-(4-(2-hydroxypropan-2-yl)phenylsulfonyl)acetamide]
8 | 1 to 5 | CC(C)c1cc(C#N)cc(C(C)C)c1CC(=O)NS(=O)(=O)c1ccc(C(C)(C)O)cc1 [Example 35, 2-(4-cyano-2,6-diisopropylphenyl)-N-(4-(2-hydroxypropan-2-yl)phenylsulfonyl)acetamide]
9 | 5 to 15 | CC(C)c1cc(C#N)cc(C(C)C)c1CC(=O)NS(=O)(=O)c1ccc(C(C)(C)O)nc1 [Example 37, 2-(4-cyano-2,6-diisopropylphenyl)-N-(6-(2-hydroxypropan-2-yl)pyridin-3-ylsulfonyl)acetamide]
10 | 5 to 15 | CC(C)c1cc(F)cc(C(C)C)c1CC(=O)NS(=O)(=O)c1cc(N2CCOCC2)cc(C(C)(C)O)c1 [Example 38, 2-(4-fluoro-2,6-diisopropylphenyl)-N-(3-(2-hydroxypropan-2-yl)-5-morpholinophenylsulfonyl)acetamide]
11 | 1 to 5 | Cc1cc(C(C)(C)O)cc(S(=O)(=O)NC(=O)Cc2c(C(C)C)cc(F)cc2C(C)C)c1 [Example 46, 2-(4-fluoro-2,6-diisopropylphenyl)-N-(3-(2-hydroxypropan-2-yl)-5-methylphenylsulfonyl)acetamide]
12 | < 1 | Cc1cc(C(C)(C)O)ccc1S(=O)(=O)NC(=O)Cc1c(C(C)C)cc(F)cc1C(C)C [Example 48, 2-(4-fluoro-2,6-diisopropylphenyl)-N-(4-(2-hydroxypropan-2-yl)-2-methylphenylsulfonyl)acetamide]
13 | 5 to 15 | CC(C)c1cc(F)cc(C(C)C)c1CC(=O)NS(=O)(=O)c1cc(F)cc(C(C)(C)O)c1 [Example 51, 2-(4-fluoro-2,6-diisopropylphenyl)-N-(3-fluoro-5-(2-hydroxypropan-2-yl)phenylsulfonyl)acetamide]
14 | 1 to 5 | CC(C)c1cc(F)cc(C(C)C)c1CC(=O)NS(=O)(=O)c1cc(C(C)(C)O)ccc1F [Example 52, 2-(4-fluoro-2,6-diisopropylphenyl)-N-(2-fluoro-5-(2-hydroxypropan-2-yl)phenylsulfonyl)acetamide]
15 | < 1 | CC(C)c1cc(F)cc(C(C)C)c1CC(=O)NS(=O)(=O)c1ccc(C(C)(C)O)c(F)c1 [Example 53, 2-(4-fluoro-2,6-diisopropylphenyl)-N-(3-fluoro-4-(2-hydroxypropan-2-yl)phenylsulfonyl)acetamide]
16 | < 1 | CC(C)c1cc(F)cc(C(C)C)c1CC(=O)NS(=O)(=O)c1ccc(C(C)(C)O)cc1F [Example 54, 2-(4-fluoro-2,6-diisopropylphenyl)-N-(2-fluoro-4-(2-hydroxypropan-2-yl)phenylsulfonyl)acetamide]

Continued, molecule first:

Row | SMILES | IC50 [µM]
17 | CC(C)c1cc(F)cc(C(C)C)c1CC(=O)NS(=O)(=O)c1ccc(C(C)(C)O)nc1 [Example 36, 2-(4-fluoro-2,6-diisopropylphenyl)-N-(6-(2-hydroxypropan-2-yl)pyridin-3-ylsulfonyl)acetamide] | 1 to 5
18 | CC(C)c1cc(F)cc(C(C)C)c1CC(=O)NS(=O)(=O)c1cnc2ccccc2c1 [Example 40, 2-(4-fluoro-2,6-diisopropylphenyl)-N-(quinolin-3-ylsulfonyl)acetamide] | 15 to 60
19 | CC(C)c1cc(F)cc(C(C)C)c1CC(=O)NS(=O)(=O)c1cc2ccccc2o1 [Example 41, N-(benzofuran-2-ylsulfonyl)-2-(4-fluoro-2,6-diisopropylphenyl)acetamide] | 5 to 15
20 | CC(C)c1ccc(F)c(C(C)C)c1CC(=O)NS(=O)(=O)c1cccc(C(C)(C)O)c1 [Example 42, 2-(3-fluoro-2,6-diisopropylphenyl)-N-(3-(2-hydroxypropan-2-yl)phenylsulfonyl)acetamide] | 5 to 15
21 | CC(C)c1ccc(F)c(C(C)C)c1CC(=O)NS(=O)(=O)c1ccc(C(C)(C)O)cc1 [Example 43, 2-(3-fluoro-2,6-diisopropylphenyl)-N-(4-(2-hydroxypropan-2-yl)phenylsulfonyl)acetamide] | 1 to 5
22 | Cc1c(C(C)(C)O)cccc1S(=O)(=O)NC(=O)Cc1c(C(C)C)cc(F)cc1C(C)C [Example 44, 2-(4-fluoro-2,6-diisopropylphenyl)-N-(3-(2-hydroxypropan-2-yl)-2-methylphenylsulfonyl)acetamide] | 5 to 15
23 | Cc1ccc(S(=O)(=O)NC(=O)Cc2c(C(C)C)cc(F)cc2C(C)C)cc1C(C)(C)O [Example 45, 2-(4-fluoro-2,6-diisopropylphenyl)-N-(3-(2-hydroxypropan-2-yl)-4-methylphenylsulfonyl)acetamide] | 1 to 5
24 | Cc1cc(S(=O)(=O)NC(=O)Cc2c(C(C)C)cc(F)cc2C(C)C)ccc1C(C)(C)O [Example 47, 2-(4-fluoro-2,6-diisopropylphenyl)-N-(4-(2-hydroxypropan-2-yl)-3-methylphenylsulfonyl)acetamide] | 1 to 5
25 | CC(C)c1cc(F)cc(C(C)C)c1CC(=O)NS(=O)(=O)c1cccc(C(C)(C)O)c1F [Example 50, 2-(4-fluoro-2,6-diisopropylphenyl)-N-(2-fluoro-3-(2-hydroxypropan-2-yl)phenylsulfonyl)acetamide] | 1 to 5
26 | CC(C)c1cc(F)cc(C(C)C)c1CC(=O)NS(=O)(=O)c1cc(C2(C)OCCO2)ccc1F [Example 56, 2-(4-fluoro-2,6-diisopropylphenyl)-N-(2-fluoro-5-(2-methyl-1,3-dioxolan-2-yl)phenylsulfonyl)acetamide] | < 1

Same assay, conditions: hTHP-1 assay containing 2% bovine serum; Table 12, by Example #; read-out: Average IC50 of compounds in hTHP-1 assay

Row | IC50 [µM] | SMILES
27 | 15 to 60 | CC(C)c1cc(F)cc(C(C)C)c1CC(=O)NS(=O)(=O)c1ccc(S(F)(F)(F)(F)F)cc1 [Example 39]
28 | 1 to 5 | CC(=O)c1ccc(F)c(S(=O)(=O)NC(=O)Cc2c(C(C)C)cc(F)cc2C(C)C)c1 [Example 55]
